Measurements: article PMC7867265, “Phosphofructokinases A and B from Mycobacterium tuberculosis Display Different Catalytic Properties and Allosteric Regulation” (International Journal of Molecular Sciences, 2021)

Experiments:
Pfk A [1] = biological target: T1, Pfk A (Mycobacterium tuberculosis, UniProt P9WID7)
T1 construct: gene pfkA

Pfk A [2] = biological target: T1, Pfk A; remark: listed apart in the source
Pfk B = biological target: T2, Pfk B (Mycobacterium tuberculosis, UniProt P9WID3)
T2 construct: gene pfkB
T2 sequence (P9WID3 whole entry): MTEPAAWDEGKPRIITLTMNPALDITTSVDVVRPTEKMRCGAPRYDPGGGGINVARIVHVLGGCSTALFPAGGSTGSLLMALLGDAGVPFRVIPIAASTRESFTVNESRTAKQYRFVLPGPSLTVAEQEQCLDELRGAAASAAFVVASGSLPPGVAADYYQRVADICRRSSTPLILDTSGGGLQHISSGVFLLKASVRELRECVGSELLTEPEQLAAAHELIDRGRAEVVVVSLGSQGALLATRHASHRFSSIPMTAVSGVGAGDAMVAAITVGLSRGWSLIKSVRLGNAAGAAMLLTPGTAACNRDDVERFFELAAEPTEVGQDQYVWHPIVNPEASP

Pfk A [3] = biological target: T1, Pfk A; remark: listed apart in the source
Pfk A [4] = biological target: T1, Pfk A; remark: listed apart in the source

T1 sequence (P9WID7 whole entry): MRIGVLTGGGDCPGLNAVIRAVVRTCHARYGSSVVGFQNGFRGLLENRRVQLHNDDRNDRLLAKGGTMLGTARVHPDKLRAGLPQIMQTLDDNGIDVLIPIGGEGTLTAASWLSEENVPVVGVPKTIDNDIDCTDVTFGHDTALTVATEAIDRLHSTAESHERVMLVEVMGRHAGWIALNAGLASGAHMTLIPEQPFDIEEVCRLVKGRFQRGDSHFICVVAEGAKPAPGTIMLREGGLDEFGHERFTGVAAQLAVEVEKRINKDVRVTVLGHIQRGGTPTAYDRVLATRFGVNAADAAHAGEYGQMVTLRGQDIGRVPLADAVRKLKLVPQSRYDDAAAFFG

Nc1ncnc2c1ncn2[C@@H]1O[C@H](COP(=O)(O)OP(=O)(O)OP(=O)(O)O)[C@@H](O)[C@H]1O [ATP]
K1/2 (Km) (Pfk A [1]): 1.5 ± 0.3 mM

O=P(O)(O)OC[C@H]1OC(O)(CO)[C@@H](O)[C@@H]1O (some centres unmarked) [F6P]
K1/2 (Km) (Pfk A [1]): 13.2 ± 2.0 mM

O=P(O)(O)OC[C@H]1OC(O)(COP(=O)(O)O)[C@@H](O)[C@@H]1O (some centres unmarked) [F16bP]
feedback inhibition, modified coupled assay II (Pfk A [2]): Pfk A was efficiently inhibited by F16bP within the low micromolar concentration range

O=P(O)(O)OC[C@H]1O[C@@](CO)(OP(=O)(O)O)[C@@H](O)[C@@H]1O [F26bP]
% activation at 100 μM (Pfk B): 20% | % activation at 100 μM (Pfk A [3]): 10%

Nc1nc2c(ncn2[C@@H]2O[C@H](COP(=O)(O)OP(=O)(O)O)[C@@H](O)[C@H]2O)c(=O)[nH]1 [GDP]
inhibition, coupled assay I (Pfk A [4]): Pfk A was found to be efficiently inhibited also by GDP within the millimolar concentration range

C=C(OP(=O)(O)O)C(=O)O [PEP]
inhibition, coupled assay I (Pfk A [4]): efficient Pfk A inhibition can be achieved by a low micromolar concentration of this metabolite

O=C(O)CC(O)(CC(=O)O)C(=O)O [citrate]
inhibition, coupled assay I (Pfk A [4]): Citrate also inhibited Pfk A, however, in millimolar concentrations
